From PubChem BioAssay (NCI)
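Protocol summary: plate cells (96-well), add compound at 5 concentrations, incubate 48 h, interpolate endpoints linearly. GI50 is the concentration that inhibits growth by half. The concentration for full growth arrest is given as TGI.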

Key:
Assay in all cases: growth of human tumour cells (NCI), 48 h
HCT-116 colon = tested on: HCT-116 colon
ACHN renal = tested on: ACHN renal
MOLT-4 leukemia = tested on: MOLT-4 leukemia
HCT-15 colon = tested on: HCT-15 colon
UO-31 renal = tested on: UO-31 renal
SF-268 CNS = tested on: SF-268 CNS
SF-539 CNS = tested on: SF-539 CNS
SK-MEL-2 melanoma = tested on: SK-MEL-2 melanoma
NCI-H23 lung = tested on: NCI-H23 lung
CAKI-1 renal = tested on: CAKI-1 renal
SK-MEL-5 melanoma = tested on: SK-MEL-5 melanoma
MDA-MB-435 = tested on: MDA-MB-435
SNB-75 CNS = tested on: SNB-75 CNS
T-47D breast = tested on: T-47D breast
HT29 colon = tested on: HT29 colon
RXF 393 renal = tested on: RXF 393 renal
SR leukemia = tested on: SR leukemia
IGROV1 ovarian = tested on: IGROV1 ovarian
HS 578T breast = tested on: HS 578T breast
U251 CNS = tested on: U251 CNS
TK-10 renal = tested on: TK-10 renal
DU-145 prostate = tested on: DU-145 prostate
NCI-H226 lung = tested on: NCI-H226 lung
MCF7 breast = tested on: MCF7 breast
NCI-H460 lung = tested on: NCI-H460 lung
OVCAR-4 ovarian = tested on: OVCAR-4 ovarian
SF-295 CNS = tested on: SF-295 CNS
HOP-92 NSCLC = tested on: HOP-92 NSCLC

Cc1[nH]c2ccccc2c1CCNCc1ccc(/C=C/C(=O)NO)cc1
GI50 (HCT-116 colon): < 0.01 µM | TGI (HCT-116 colon): 0.0142 µM | GI50 (ACHN renal): 0.0183 µM | TGI (ACHN renal): 0.0714 µM | GI50 (MOLT-4 leukemia): < 0.01 µM | GI50 (HCT-15 colon): 0.0676 µM | TGI (HCT-15 colon): 12.9 µM | GI50 (UO-31 renal): 0.0129 µM | TGI (UO-31 renal): 0.0637 µM | GI50 (SF-268 CNS): 0.0157 µM | TGI (SF-268 CNS): 0.0605 µM | GI50 (SF-539 CNS): 0.0249 µM | TGI (SF-539 CNS): 2.11 µM | GI50 (SK-MEL-2 melanoma): < 0.012 µM | TGI (SK-MEL-2 melanoma): 0.0532 µM | GI50 (NCI-H23 lung): 0.0246 µM | TGI (NCI-H23 lung): 0.15 µM | GI50 (CAKI-1 renal): 0.0193 µM | TGI (CAKI-1 renal): 0.0524 µM | GI50 (SK-MEL-5 melanoma): < 0.0113 µM | TGI (SK-MEL-5 melanoma): 0.0275 µM | GI50 (MDA-MB-435): < 0.01 µM | TGI (MDA-MB-435): 0.0502 µM | GI50 (SNB-75 CNS): < 0.0147 µM | TGI (SNB-75 CNS): 2.8 µM | GI50 (T-47D breast): < 0.01 µM | TGI (T-47D breast): 0.0344 µM | GI50 (HT29 colon): < 0.01 µM | TGI (HT29 colon): 10.6 µM | GI50 (RXF 393 renal): < 0.0104 µM | TGI (RXF 393 renal): 0.025 µM | GI50 (SR leukemia): < 0.01 µM | GI50 (IGROV1 ovarian): 0.0168 µM | TGI (IGROV1 ovarian): 0.0721 µM | GI50 (HS 578T breast): < 0.01 µM | TGI (HS 578T breast): 0.0554 µM | GI50 (U251 CNS): < 0.0108 µM | TGI (U251 CNS): 0.0333 µM | GI50 (TK-10 renal): < 0.0111 µM | TGI (TK-10 renal): 0.0453 µM | GI50 (DU-145 prostate): < 0.01 µM | TGI (DU-145 prostate): 0.0532 µM | GI50 (NCI-H226 lung): 0.0305 µM | TGI (NCI-H226 lung): 0.172 µM | GI50 (MCF7 breast): < 0.01 µM | TGI (MCF7 breast): 0.795 µM | GI50 (NCI-H460 lung): < 0.01 µM | TGI (NCI-H460 lung): 0.838 µM | GI50 (OVCAR-4 ovarian): 0.015 µM | TGI (OVCAR-4 ovarian): 0.0585 µM | GI50 (SF-295 CNS): 0.0146 µM | TGI (SF-295 CNS): 0.0563 µM | GI50 (HOP-92 NSCLC): < 0.01 µM | TGI (HOP-92 NSCLC): < 0.01 µM
